Laboratory results taken from US20260256792A1, “TREATMENT OF CHRONIC SPONTANEOUS URTICARIA BY ADMINISTERING (R)-2-[3-[4-AMINO-3-(2-FLUORO-4-PHENOXY-PHENYL)PYRAZOLO[3,4-D]PYRIMIDIN-1-YL]PIPERIDINE-1-CARBONYL]-4-METHYL-4-[4-(OXETAN-3-YL)PIPERAZIN-1-YL]PENT-2-ENENITRILE” (priority 2023, published 2026).

Test system: moderate-to-severe chronic spontaneous urticaria (CSU)
Assay: Phase 2 CSU study: urticaria activity score over 7 days (UAS7)
Type: in vivo, human
Set-up: key to UAS7 Median / UAS7 Change from baseline Median / UAS7 change from baseline, Q1 / UAS7 change from baseline, Q3 / UAS7 change from baseline, Max / UAS7 Change from baseline LS Mean (SE): UAS7 points; daily UAS score ranges 0–6 points/day, over 7 days
Source text: The study comprises a 12 week, randomized, double-blind, placebo-controlled, multi-center, dose-ranging efficacy and safety phase, followed by a 40 week open label extension (OLE) phase (see FIG. 1). The study consists of three phases and an optional OLE phase. […] Clinically, CSU is characterized by the spontaneous and recurrent appearance of pruritic hives. The proposed primary endpoints were the UAS7 at Week 12 in EU and EU reference countries and the ISS7 in the US. Regardless of where a participant was from, all assessments were the same. The UAS7 score is a composite score containing both the HSS7 and the ISS7. This allowed a global assessment of the two key components of urticaria: hives and itch. […] The UAS is a validated PRO measure. […] The daily UAS scores range from 0 to 6 point/day. […] Patients were to complete the UAS using the e-diary. […] The following secondary endpoints were to be analyzed using the same approach as for the primary endpoint: • Change from baseline in UAS7 at Week 4 • Change from baseline in UAS7 at Week 12 (for US and US reference countries) • Change from baseline in ISS7 at Week 12 (except US and US reference countries) • Change from baseline in HSS7 at Week 12 The following responder secondary endpoints were to be analyzed using the Cochran-Mantel-Haenszel test adjusted by region: • Proportion of participants with UAS7<6 at Week 12 • Proportion of participants with UAS7=0 at Week 12 Participants who received selected prohibited medications and/or rescue medications were to be considered as non-responders for time points after the medication usage. For other participants, all available data including those collected during the off-treatment period were to be used to determine the responder/non-responder status. Missing data were to be considered as non-responders.

[1] = Week 8, 400 mg BID, omalizumab-naive participants
[2] = Week 8, 400 mg QPM, ITT population
[3] = Week 8, 400 mg QPM, Omalizumab-Naïve
[4] = Week 8, 400 mg QPM, Prior Omalizumab Use
[5] = Week 8, 400 mg QPM, omalizumab-naive participants
[6] = Week 8, 400 mg TID, ITT population
[7] = Week 8, 400 mg TID, Omalizumab-Naïve
[8] = Week 8, 400 mg TID, Prior Omalizumab Use
[9] = Week 8, 400 mg TID, omalizumab-naive participants
[10] = Week 9, 400 mg BID, ITT population
[11] = Week 9, 400 mg BID, Omalizumab-Naïve
[12] = Week 9, 400 mg BID, Prior Omalizumab Use
[13] = Week 9, 400 mg BID, omalizumab-naive participants
[14] = Week 9, 400 mg QPM, ITT population
[15] = Week 9, 400 mg QPM, Omalizumab-Naïve

SMILES: CC(C)(C=C(C#N)C(=O)N1CCC[C@@H](n2nc(-c3ccc(Oc4ccccc4)cc3F)c3c(N)ncnc32)C1)N1CCN(C2COC2)CC1 [rilzabrutinib, (R)-2-[3-[4-amino-3-(2-fluoro-4-phenoxy-phenyl)pyrazolo[3,4-d]pyrimidin-1-yl]piperidine-1-carbonyl]-4-methyl-4-[4-(oxetan-3-yl)piperazin-1-yl]pent-2-enenitrile]
- RRD (%) for rilzabrutinib vs. placebo, UAS7 reduction of 10 points or more [1]: 24.0 %
- Responder, UAS7 reduction from baseline of 10 points or more [1]: 21 (60.0) n (%)
- Non-responder, UAS7 reduction from baseline of 10 points or more [2]: 21 (55.3) n (%)
- OR for rilzabrutinib vs. placebo, UAS7 reduction of 10 points or more [2]: 1.257
- RRD (%) for rilzabrutinib vs. placebo, UAS7 reduction of 10 points or more [2]: 5.3 %
- Responder, UAS7 reduction from baseline of 10 points or more [2]: 17 (44.7) n (%)
- UAS7 Change from baseline Mean (SD) [3]: −10.63 (9.70)
- UAS7 Change from baseline Median [3]: −10.80
- UAS7 Median [3]: 21.00
- UAS7 Percent change from baseline Mean (SD) [3]: −33.68 (30.26) %
- UAS7 Percent change from baseline Median [3]: −31.82%
- UAS7 Change from baseline Mean (SD) [4]: −25.00 (NC)
- UAS7 Change from baseline Median [4]: −25.00
- UAS7 Mean (SD) [4]: 16.00 (NC)
- UAS7 Median [4]: 16.00
- UAS7 Percent change from baseline Mean (SD) [4]: −60.98 (NC) %
- UAS7 Percent change from baseline Median [4]: −60.98%
- Non-responder, UAS7 reduction from baseline of 10 points or more [5]: 21 (56.8) n (%)
- OR for rilzabrutinib vs. placebo, UAS7 reduction of 10 points or more [5]: 1.331
- RRD (%) for rilzabrutinib vs. placebo, UAS7 reduction of 10 points or more [5]: 6.6 %
- Responder, UAS7 reduction from baseline of 10 points or more [5]: 16 (43.2) n (%)
- Non-responder, UAS7 reduction from baseline of 10 points or more [6]: 14 (34.1) n (%)
- RRD (%) for rilzabrutinib vs. placebo, UAS7 reduction of 10 points or more [6]: 23.2 %
- Responder, UAS7 reduction from baseline of 10 points or more [6]: 27 (65.9) n (%)
- UAS7 Change from baseline Mean (SD) [7]: −16.89 (10.13)
- UAS7 Change from baseline Median [7]: −15.17
- UAS7 Mean (SD) [7]: 13.36 (9.81)
- UAS7 Median [7]: 14.00
- UAS7 Percent change from baseline Mean (SD) [7]: −55.66 (31.25) %
- UAS7 Percent change from baseline Median [7]: −55.83%
- UAS7 Change from baseline Median [8]: −25.58
- UAS7 Mean (SD) [8]: 7.50 (11.26)
- UAS7 Median [8]: 3.00
- UAS7 Percent change from baseline Mean (SD) [8]: −78.96 (25.66) %
- UAS7 Percent change from baseline Median [8]: −84.90%
- Non-responder, UAS7 reduction from baseline of 10 points or more [9]: 13 (37.1) n (%)
- OR for rilzabrutinib vs. placebo, UAS7 reduction of 10 points or more [9]: 2.815
- RRD (%) for rilzabrutinib vs. placebo, UAS7 reduction of 10 points or more [9]: 25.7 %
- Responder, UAS7 reduction from baseline of 10 points or more [9]: 22 (62.9) n (%)
- Non-responder, UAS7 reduction from baseline of 10 points or more [10]: 20 (48.8) n (%)
- OR for rilzabrutinib vs. placebo, UAS7 reduction of 10 points or more [10]: 1.471
- RRD (%) for rilzabrutinib vs. placebo, UAS7 reduction of 10 points or more [10]: 10.6 %
- Responder, UAS7 reduction from baseline of 10 points or more [10]: 21 (51.2) n (%)
- UAS7 Change from baseline Median [11]: −17.00
- UAS7 Mean (SD) [11]: 14.64 (14.43)
- UAS7 Percent change from baseline Mean (SD) [11]: −53.27 (40.38) %
- UAS7 Percent change from baseline Median [11]: −59.77%
- UAS7 Change from baseline Mean (SD) [12]: −20.83 (19.15)
- UAS7 Change from baseline Median [12]: −27.00
- UAS7 Mean (SD) [12]: 11.17 (15.78)
- UAS7 Median [12]: 1.00
- UAS7 Percent change from baseline Mean (SD) [12]: −60.63 (52.86) %
- UAS7 Percent change from baseline Median [12]: −97.62%
- Non-responder, UAS7 reduction from baseline of 10 points or more [13]: 17 (48.6) n (%)
- OR for rilzabrutinib vs. placebo, UAS7 reduction of 10 points or more [13]: 1.764
- RRD (%) for rilzabrutinib vs. placebo, UAS7 reduction of 10 points or more [13]: 16.0 %
- Responder, UAS7 reduction from baseline of 10 points or more [13]: 18 (51.4) n (%)
- Non-responder, UAS7 reduction from baseline of 10 points or more [14]: 20 (52.6) n (%)
- OR for rilzabrutinib vs. placebo, UAS7 reduction of 10 points or more [14]: 1.452
- RRD (%) for rilzabrutinib vs. placebo, UAS7 reduction of 10 points or more [14]: 8.5 %
- Responder, UAS7 reduction from baseline of 10 points or more [14]: 18 (47.4) n (%)
- UAS7 Change from baseline Median [15]: −11.00
- UAS7 Mean (SD) [15]: 20.25 (10.25)
- UAS7 Median [15]: 19.33
- UAS7 Percent change from baseline Mean (SD) [15]: −36.26 (27.83) %
- UAS7 Percent change from baseline Median [15]: −32.58%
